“And” between values parts separate entries of the source, which are not always exact repeats. Equal entries are not always repeated.
What was measured:
rat TTR = assay: Serum TTR level after LNP delivery (Rat Prealbumin (Transthyretin) ELISA); format: in vivo, rat (Sprague-Dawley); conditions: LNP with PEG2K-DMG
Procedure: Sprague-Dawley female rats, ranging from 6-10 weeks of age were used in each study. Animals were weighed and dosed based on individual body weight measured the morning of dosing. LNPs were dosed via the lateral tail vein in a volume of 2 mL per kilogram of animal body weight. The animals were periodically observed for adverse effects for at least 24 hours post dose.
For studies measuring in vivo editing in liver, Sprague-Dawley female rats were dosed at 0.1 mpk or 0.03 mpk, unless otherwise noted. Animals were euthanized at 6 or 7 days by carbon dioxide asphyxiation and a heart clip or by ex sanguination via cardiac puncture under isoflourane anesthesia. Blood was collected into serum separator tubes. Liver tissue was collected. Genomic DNA was isolated from the liver tissue for editing measurement by Next-Generation Sequencing (NGS).
Blood was collected and the serum was isolated as indicated. The total rat TTR serum levels were determined using a Rat Prealbumin (Transthyretin) ELISA Kit (Aviva Systems Biology, Cat. #OKIA00159). Briefly, sera were serial diluted with kit sample diluent to a final dilution of 10,000-fold. This diluted sample was then added to the ELISA plates and the assay was then carried out according to manufacturer's protocol.
In vivo editing efficiency for materials delivered with formulations including various amine lipid (or ionizable lipid) compounds in Experiments 1 through 14 as described in Tables 3 and 4 was assessed. Editing was measured using G000534 (SEQ ID NO: 5) which targets the rat TTR gene. Lipids described above were assessed for efficacy through in vivo editing experiments. LNPs were formulated at a 1:2 w/w ratio of sgRNA (SEQ ID NO: 5) and Cas9 mRNA (SEQ ID NO: 3). In Experiments 1 through 13, lipid components of the LNP are formulated in a molar ratio of 50% ionizable lipid, 38% cholesterol, 9% DSPC, and 3% PEG2K-DMG. In Experiment 14, lipid components of the LNP are formulated in a molar ratio of 50% ionizable lipid, 38% cholesterol, 9% DSPC, and 3% C13 Ether. The final LNPs used in different in vivo editing experiments were characterized to determine the encapsulation efficiency (% E), polydispersity index (PDI), and average particle size (Z-avg and number mean) according to the analytical methods provided above. The pKa values of each of the following ionizable lipids were also measured to be in the range of about 5.8 to about 7.6.
TSS was used as a vehicle-only negative control. The data are illustrated in FIGS. 1A through 14.

[1] = LNP average particle size and polydispersity by dynamic light scattering; format: physicochemical; conditions: sgRNA:mRNA 1:2
Outline: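 Z-average (intensity-based) and number-mean diameters plus PDI measured by DLS on LNP samples diluted in PBS. LNPs carried sgRNA and Cas9 mRNA at 1:2 w/w, with lipids at 50% ionizable lipid, 38% cholesterol, 9% DSPC and 3% PEG lipid (PEG2K-DMG, C13 Ether or C14 Ether).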

[2] = Table 3, Experiments 1-13, LNP 50% ionizable lipid, 38% cholesterol, 9% DSPC, 3% PEG2K-DMG
[3] = LNP with 50% ionizable lipid, 38% cholesterol, 9% DSPC, 3% C13 Ether (LNP #1, Compound 53: 3% PEG2K-DMG instead)

| Number mean [1, 2] | PDI [1, 2] | Z-avg [1, 2] | SMILES | % TSS (serum TTR relative to vehicle) (rat TTR; Experiment 2, 0.1 mpk) | Serum TTR (rat TTR; Experiment 2, 0.1 mpk) | % TSS (serum TTR relative to vehicle) (rat TTR; Experiment 5, 0.1 mpk) | Serum TTR (rat TTR; Experiment 5, 0.1 mpk) | % TSS (serum TTR relative to vehicle) (rat TTR; Experiment 1, 0.1 mpk) | Serum TTR (rat TTR; Experiment 1, 0.1 mpk) | further results |
| --- | --- | --- | --- | --- | --- | --- | --- | --- | --- | --- |
| 78 nm and 83 nm | 0.02 and 0.04 | 95 nm and 91 nm | CCCCC/C=C\C/C=C\CCCCCCCC(=O)OCC(COC(=O)CCCCCC(=O)OCC(CCCC)CCCCCC)COC(=O)OCCCN(CC)CC (stereo not shown) [Compound 4, 1-(2-butyloctyl) 7-(3-(((3-(diethylamino)propoxy)carbonyl)oxy)-2-((((9Z,12Z)-octadeca-9,12-dienoyl)oxy)methyl)propyl) heptanedioate] | 46% | 647.4 µg/mL |  |  |  |  |  |
| 90 nm | 0.01 | 109 nm | CCCCCCC(CCCC)COC(=O)CCCCCC(=O)OCC(COC(=O)CCCCCC(=O)OCC(CCCC)CCCCCC)COC(=O)OCCCN(CC)CC (stereo not shown) [Compound 5, 7,7′-bis(2-butyloctyl) O′1,O1-(2-((((3-(diethylamino)propoxy)carbonyl)oxy)methyl)propane-1,3-diyl) di(heptanedioate)] | 25% | 346.5 µg/mL |  |  |  |  |  |
| 60 nm | 0.03 | 67 nm | CCCCC/C=C\C/C=C\CCCCCCCC(=O)OCC(CCCCCCCCC(=O)OC(CCCCCCCC)CCCCCCCCC)COC(=O)CCC(CCCCCCCC)OC(=O)NCCN(C)CC (stereo not shown) [Compound 24, 3-methyl-15-(9-(octadecan-9-yloxy)-9-oxononyl)-9-octyl-7,12-dioxo-8,13-dioxa-3,6-diazahexadecan-16-yl (9Z,12Z)-octadeca-9,12-dienoate] |  |  | 95% | 1352.4 µg/mL |  |  |  |
| 64 nm | 0.03 | 72 nm | CCCCC/C=C\C/C=C\CCCCCCCC(=O)OCC(CCCCCCCCC(=O)OC(CCCCCCCC)CCCCCCCCC)COC(=O)CCC(CCCCCCCC)OC(=O)NCCN1CCCC1 (stereo not shown) [Compound 25, 11-(octadecan-9-yloxy)-11-oxo-2-(((4-(((2-(pyrrolidin-1-yl)ethyl)carbamoyl)oxy)dodecanoyl)oxy)methyl)undecyl (9Z,12Z)-octadeca-9,12-dienoate] |  |  | 70% | 998.3 µg/mL |  |  |  |
| 76 nm | 0.01 | 81 nm | CCCCC/C=C\C/C=C\CCCCCCCC(=O)OCC(CCCCCCCCC(=O)OC(CCCCCCCC)CCCCCCCCC)COC(=O)CCC(CCCC)OC(=O)NCCN(C)CC (stereo not shown) [Compound 26, 9-butyl-3-methyl-15-(9-(octadecan-9-yloxy)-9-oxononyl)-7,12-dioxo-8,13-dioxa-3,6-diazahexadecan-16-yl (9Z,12Z)-octadeca-9,12-dienoate] |  |  | 35% | 502.9 µg/mL |  |  |  |
| 77 nm | 0.01 | 82 nm | CCCCC/C=C\C/C=C\CCCCCCCC(=O)OCC(CCCCCCCCC(=O)OC(CCCCCCCC)CCCCCCCCC)COC(=O)CCC(CCCC)OC(=O)NCCN1CCCC1 (stereo not shown) [Compound 27, 11-(octadecan-9-yloxy)-11-oxo-2-(((4-(((2-(pyrrolidin-1-yl)ethyl)carbamoyl)oxy)octanoyl)oxy)methyl)undecyl (9Z,12Z)-octadeca-9,12-dienoate] |  |  | 21% | 294.3 µg/mL |  |  |  |
| 80 nm | 0.003 | 98 nm | CCCCC/C=C\C/C=C\CCCCCCCC(=O)OCC(COC(=O)CCC(OCCCCCCCC)OCCCCCCCC)COC(=O)NCCN(CC)CC (stereo not shown) [Compound 54] |  |  |  |  | 48% | 512.9 µg/mL |  |
| 74 nm and 80 nm | 0.04 and 0.03 | 90 nm and 86 nm | CCCCC/C=C\C/C=C\CCCCCCCC(=O)OCC(COC(=O)CCCC(=O)OC(CCCCCCCC)CCCCCCCC)COC(=O)OCCCN(CC)CC (stereo not shown) [Compound 56] | 28% | 390.1 µg/mL |  |  |  |  |  |
| 75 nm and 80 nm |  | 91 nm and 88 nm | CCCCC/C=C\C/C=C\CCCCCCCC(=O)OCC(COC(=O)CCCCCC(=O)OC(CCCCCCCC)CCCCCCCC)COC(=O)OCCCN(CC)CC (stereo not shown) [Compound 57] | 30% | 412.3 µg/mL |  |  |  |  |  |
| 69 nm and 84 nm and 77 nm |  | 91 nm and 92 nm and 94 nm | CCCCC/C=C\C/C=C\CCCCCCCC(=O)OCC(COC(=O)CCCC(=O)OC(CCCCCCCC)CCCCCCCC)COC(=O)NCCN(CC)CC (stereo not shown) [Compound 58] | 14% | 198.8 µg/mL |  |  | 38% | 406.3 µg/mL |  |
| 83 nm and 78 nm | 0.01 and 0.02 | 100 nm and 95 nm | CCCCC/C=C\C/C=C\CCCCCCCC(=O)OCC(COC(=O)CCCCCC(=O)OC(CCCCCCCC)CCCCCCCC)COC(=O)NCCN(CC)CC (stereo not shown) [Compound 59] | 20% | 276.6 µg/mL |  |  | 50% | 533.0 µg/mL |  |

| SMILES | Number mean [1, 2] | PDI [1, 2] | Z-avg [1, 2] | % TSS (serum TTR relative to vehicle) (rat TTR; Experiment 2, 0.1 mpk) | Serum TTR (rat TTR; Experiment 2, 0.1 mpk) | % TSS (serum TTR relative to vehicle) (rat TTR; Experiment 5, 0.1 mpk) | Serum TTR (rat TTR; Experiment 5, 0.1 mpk) | % TSS (serum TTR relative to vehicle) (rat TTR; Experiment 1, 0.1 mpk) | Serum TTR (rat TTR; Experiment 1, 0.1 mpk) | further results |
| --- | --- | --- | --- | --- | --- | --- | --- | --- | --- | --- |
| CCCCC/C=C\C/C=C\CCCCCCCC(=O)OCC(COC(=O)CCC(OCCCCCCCC)OCCCCCCCC)COC(=O)OCCCN(CC)CC (stereo not shown) [Compound 53] |  |  | 94 nm and 89 nm and 96 nm and 92 nm and 90 nm and 91 nm and 95 nm | 24% | 341.9 µg/mL | 44% | 624.1 µg/mL | 48% | 519.9 µg/mL | Number mean (average particle size) [1, 3]: 71 nm; PDI (polydispersity index) [1, 3]: 0.04; Z-avg (average particle size) [1, 3]: 87 nm; Number mean ([1]; Table 5, PEG lipid C13 Ether): 80 nm; PDI ([1]; Table 5, PEG lipid C13 Ether): 0.02; Z-avg ([1]; Table 5, PEG lipid C13 Ether): 87 nm; Number mean ([1]; Table 5, PEG lipid C14 Ether): 90 nm; PDI ([1]; Table 5, PEG lipid C14 Ether): 0.01; Z-avg ([1]; Table 5, PEG lipid C14 Ether): 96 nm; Number mean ([1]; Table 5, PEG lipid PEG2K-DMG): 82 nm; PDI ([1]; Table 5, PEG lipid PEG2K-DMG): 0.01; Z-avg ([1]; Table 5, PEG lipid PEG2K-DMG): 87 nm |

Reference: US20260337153A1, “IONIZABLE AMINE LIPIDS” (Intellia Therapeutics, Inc., priority 2023, published 2026)
